Values quoted from earlier work as cited in PubChem BioAssay AID1259409 (Chemical Carcinogenesis Research Information System (CCRIS), 2018).

Test system: rodent chemically induced tumor inhibition, incidence and multiplicity
Assay: CCRIS tumor inhibitor studies
Conditions: Promoter: NONE USED

Question: With O=C(O)c1cc(=O)[nH]c(=O)[nH]1 as the compound, how does the “tumour outcome (control, treated, inhibition, significance)” value (Carcinogen: URETHANE, 51-79-6, Dose [Inhibitor]: 0.1 MG/GM BW AS A 1% SUSPENSION IN DISTILLED WATER ONCE 14 WK OF AGE SIMULTANEOUS WITH CARCINOGEN TREATMENT (STUDY DURAT, Route [Inhibitor]: INTRAPERITONEAL, Species: MOUSE, Strain/Sex: SWR/MALE, Target Tissue: Type of Lesion: LUNG: ADENOMA, Dose [Carcinogen]: 1 MG/G BW IN DISTILLED WATER ONCE) read?
Answer: 100%, 100%, 0%, not significant

Question: And the “tumour outcome (control, treated, inhibition, significance)” value (Carcinogen: URETHANE, 51-79-6, Dose [Inhibitor]: 0.1 MG/GM BW AS A 1% SUSPENSION IN DISTILLED WATER TWICE AT 13 WK OF AGE GIVEN 24 HR APART STARTING 24 HR PRIOR TO CARCI, Route [Inhibitor]: INTRAPERITONEAL, Species: MOUSE, Strain/Sex: SWR/MALE, Target Tissue: Type of Lesion: LUNG: ADENOMA, Dose [Carcinogen]: 0.5 MG/GM BW IN DISTILLED WATER ONCE AT SAME TIME AS LAST AGENT TREATMENT)?
Answer: 83%, 100%, -20%, not significant

Question: And the “tumour outcome (control, treated, inhibition, significance)” value (Carcinogen: URETHANE, 51-79-6, Dose [Inhibitor]: 0.1 MG/GM BW AS A 1% SUSPENSION IN DISTILLED WATER TWICE AT 22 WK OF AGE GIVEN 24 HR APART STARTING 24 HR PRIOR TO CARCI, Route [Inhibitor]: INTRAPERITONEAL, Species: MOUSE, Strain/Sex: SWR/MALE, Target Tissue: Type of Lesion: LUNG: ADENOMA, Dose [Carcinogen]: 0.5 MG/GM BW IN DISTILLED WATER ONCE AT SAME TIME AS LAST AGENT TREATMENT)?
Answer: 71%, 71%, 0%, not significant

Question: For CC(C(=O)O)c1ccc2c(c1)[nH]c1ccc(Cl)cc12 (stereo not given), which “tumour outcome (control, treated, inhibition, significance)” value (Carcinogen: 7,12-DIMETHYLBENZ[A]ANTHRACENE, 57-97-6, Dose [Inhibitor]: 0, 0.02% IN 20% FAT DIET CONTAINING 0.5% LINOLEIC ACID BEGINNING 7 D POST CARCINOGEN DOSE AND CONTINUING FOR DURATION OF, Route [Inhibitor]: ORAL, Species: RAT, Strain/Sex: SPRAGUE-DAWLEY/FEMALE, Target Tissue: Type of Lesion: MAMMARY GLAND: ADENOCARCINOMA, Dose [Carcinogen]: 5 MG AT 50-53 DAYS OF AGE) is on record?
Answer: 56%, 52%, 7%, not calculated

Question: What about the “tumour outcome (control, treated, inhibition, significance)” value (Carcinogen: 7,12-DIMETHYLBENZ[A]ANTHRACENE, 57-97-6, Dose [Inhibitor]: 0, 0.02% IN 20% FAT DIET CONTAINING 4% LINOLEIC ACID BEGINNING 7 D POST CARCINOGEN DOSE AND CONTINUING FOR DURATION OF S, Route [Inhibitor]: ORAL, Species: RAT, Strain/Sex: SPRAGUE-DAWLEY/FEMALE, Target Tissue: Type of Lesion: MAMMARY GLAND: ADENOCARCINOMA, Dose [Carcinogen]: 5 MG AT 50-53 DAYS OF AGE) of the same compound?
Answer: 53%, 61%, -15%, not calculated

Question: What about the “tumour outcome (control, treated, inhibition, significance)” value (Carcinogen: 7,12-DIMETHYLBENZ[A]ANTHRACENE, 57-97-6, Dose [Inhibitor]: 0, 0.02% IN 20% FAT DIET CONTAINING 12% LINOLEIC ACID BEGINNING 7 D POST CARCINOGEN DOSE AND CONTINUING FOR DURATION OF, Route [Inhibitor]: ORAL, Species: RAT, Strain/Sex: SPRAGUE-DAWLEY/FEMALE, Target Tissue: Type of Lesion: MAMMARY GLAND: ADENOCARCINOMA, Dose [Carcinogen]: 5 MG AT 50-53 DAYS OF AGE) of the same compound?
Answer: 69%, 55%, 20%, not calculated

Question: What about the “tumour outcome (control, treated, inhibition, significance)” value (Carcinogen: 7,12-DIMETHYLBENZ[A]ANTHRACENE, 57-97-6, Dose [Inhibitor]: 0, 0.02% IN HIGH FAT DIET (20% CORN OIL) BEGINNING 7 D POST CARCINOGEN DOSE AND CONTINUING FOR DURATION OF STUDY (STUDY, Route [Inhibitor]: ORAL, Species: RAT, Strain/Sex: SPRAGUE-DAWLEY/FEMALE, Target Tissue: Type of Lesion: MAMMARY GLAND: ADENOCARCINOMA, Dose [Carcinogen]: 5 MG AT 50-53 DAYS OF AGE) of the same compound?
Answer: 88%, 91%, -3%, not calculated

Question: And the “tumour outcome (control, treated, inhibition, significance)” value (Carcinogen: 7,12-DIMETHYLBENZ[A]ANTHRACENE, 57-97-6, Dose [Inhibitor]: 0, 0.02% IN HIGH FAT DIET (20% CORN OIL) BEGINNING 7 D POST CARCINOGEN DOSE AND CONTINUING FOR DURATION OF STUDY (STUDY, Route [Inhibitor]: ORAL, Species: RAT, Strain/Sex: SPRAGUE-DAWLEY/FEMALE, Target Tissue: Type of Lesion: MAMMARY GLAND: TUMOR, Dose [Carcinogen]: 5 MG AT 50-53 DAYS OF AGE)?
Answer: 47%, 56%, -19%, not calculated

Question: What about the “tumour outcome (control, treated, inhibition, significance)” value (Carcinogen: 7,12-DIMETHYLBENZ[A]ANTHRACENE, 57-97-6, Dose [Inhibitor]: 0, 0.02% IN NORMAL FAT DIET (5% CORN OIL) BEGINNING 7 D POST CARCINOGEN DOSE AND CONTINUING FOR DURATION OF STUDY (STUDY, Route [Inhibitor]: ORAL, Species: RAT, Strain/Sex: SPRAGUE-DAWLEY/FEMALE, Target Tissue: Type of Lesion: MAMMARY GLAND: ADENOCARCINOMA, Dose [Carcinogen]: 5 MG AT 50-53 DAYS OF AGE) of the same compound?
Answer: 59%, 83%, -41%, not calculated

Question: With CC1CCC(=O)O1 (stereo not given) as the compound, how does the “tumour outcome (control, treated, inhibition, significance)” value (Carcinogen: BENZO[A]PYRENE, 50-32-8, Dose [Inhibitor]: 0.034 MMOL/G IN DIET FOR 5 WK BEGINNING 1 WK PRIOR TO CARCINOGEN DOSE (STUDY DURATION: 21 WK), Route [Inhibitor]: ORAL, Species: MOUSE, Strain/Sex: ICR/FEMALE, Target Tissue: Type of Lesion: FORESTOMACH: TUMOR, Dose [Carcinogen]: 1 MG IN 0.2 ML CORN OIL 2/WK FOR 4 WK) read?
Answer: (95%, 95%, 0%, not significant
